According to PubChem BioAssay AID1259407 (Chemical Carcinogenesis Research Information System (CCRIS), 2018):
Activity calls are given as the source filed them. How the calls were made is not given here.

System: CCRIS mutagenicity, Ames/micronucleus/aberration tests
Test: CCRIS mutagenicity studies
[1] = Test System: AMES SALMONELLA TYPHIMURIUM, Strain/Indicator: TA98, Metabolic Activation: NONE, Method: STANDARD PLATE
[2] = Test System: AMES SALMONELLA TYPHIMURIUM, Strain/Indicator: TA100, Metabolic Activation: NONE, Method: PREINCUBATION
[3] = Test System: AMES SALMONELLA TYPHIMURIUM, Strain/Indicator: TA1535, Metabolic Activation: NONE, Method: PREINCUBATION
[4] = Test System: AMES SALMONELLA TYPHIMURIUM, Strain/Indicator: TA98, Metabolic Activation: RAT, LIVER, S-9, AROCLOR 1254, Method: STANDARD PLATE
[5] = Test System: AMES SALMONELLA TYPHIMURIUM, Strain/Indicator: TA100, Metabolic Activation: NONE, Method: STANDARD PLATE
[6] = Test System: AMES SALMONELLA TYPHIMURIUM, Strain/Indicator: TA100, Metabolic Activation: RAT, LIVER, S-9, AROCLOR 1254, Method: STANDARD PLATE

O=[N+]([O-])c1ccc2cn[nH]c2c1
mutagenic call [1]: active; positive

CC(C)C1(C)N=C(c2ncccc2C(=O)O)NC1=O (configuration not stated)
mutagenic call (End Point: IN VIVO MICRONUCLEUS, Test System: BONE MARROW POLYCHROMATIC ERYTHROCYTES, Species: MOUSE, Strain/Sex: SWISS/MALE, FEMALE, Route: IP 2X IN AQUEOUS SUSPENSION WITHIN 24 HR): inactive; negative

C/C=C(\C)C(=O)O[C@H]1C[C@@H](OC(C)=O)[C@@]2(C(=O)OC)CO[C@H]3[C@@H](O)[C@@](C)([C@]45O[C@@]4(C)[C@H]4C[C@@H]5O[C@@H]5OC=C[C@@]54O)[C@H]4[C@]1(CO[C@]4(O)C(=O)OC)[C@@H]32
mutagenic call (End Point: IN VIVO CHROMOSOMAL ABERRATIONS, Test System: BONE MARROW, Species: MOUSE, Strain/Sex: SWR/J/MALE,FEMALE, Route: ORAL (GAVAGE)): inactive; negative | mutagenic call (End Point: In vivo chromosomal aberrations, Test System: Bone marrow cells, Species: Mouse, Strain/Sex: Swiss/Male, Route: Oral): active; positive (structural changes)

CNc1ccccc1
mutagenic call (Test System: AMES SALMONELLA TYPHIMURIUM, Strain/Indicator: TA97, Metabolic Activation: HAMSTER, LIVER, S-9, AROCLOR 1254 (10%), Method: PREINCUBATION): inactive; negative | mutagenic call (Test System: AMES SALMONELLA TYPHIMURIUM, Strain/Indicator: TA97, Metabolic Activation: HAMSTER, LIVER, S-9, AROCLOR 1254 (30%), Method: PREINCUBATION): inactive; negative | mutagenic call (Test System: AMES SALMONELLA TYPHIMURIUM, Strain/Indicator: TA97, Metabolic Activation: NONE, Method: PREINCUBATION): inactive; negative | mutagenic call (Test System: AMES SALMONELLA TYPHIMURIUM, Strain/Indicator: TA97, Metabolic Activation: RAT, LIVER, S-9, AROCLOR 1254 (10%), Method: PREINCUBATION): inactive; negative | mutagenic call (Test System: AMES SALMONELLA TYPHIMURIUM, Strain/Indicator: TA97, Metabolic Activation: RAT, LIVER, S-9, AROCLOR 1254 (30%), Method: PREINCUBATION): inactive; negative | mutagenic call (Test System: AMES SALMONELLA TYPHIMURIUM, Strain/Indicator: TA98, Metabolic Activation: HAMSTER, LIVER, S-9, AROCLOR 1254 (10%), Method: PREINCUBATION): inactive; negative | mutagenic call (Test System: AMES SALMONELLA TYPHIMURIUM, Strain/Indicator: TA98, Metabolic Activation: HAMSTER, LIVER, S-9, AROCLOR 1254 (30%), Method: PREINCUBATION): inactive; negative | mutagenic call (Test System: AMES SALMONELLA TYPHIMURIUM, Strain/Indicator: TA98, Metabolic Activation: HAMSTER, LIVER, S-9, SODIUM PHENOBARBITAL AND 5,6-BENZOFLAVONE, Method: PREINCUBATION): inactive; negative | mutagenic call (Test System: AMES SALMONELLA TYPHIMURIUM, Strain/Indicator: TA98, Metabolic Activation: NONE, Method: PREINCUBATION): inactive; negative | mutagenic call (Test System: AMES SALMONELLA TYPHIMURIUM, Strain/Indicator: TA98, Metabolic Activation: RAT, LIVER, S-9, AROCLOR 1254 (10 OR 30%), Method: PREINCUBATION): inactive; negative | mutagenic call (Test System: AMES SALMONELLA TYPHIMURIUM, Strain/Indicator: TA100, Metabolic Activation: HAMSTER, LIVER, S-9, AROCLOR 1254 (10%), Method: PREINCUBATION): inactive; negative | mutagenic call (Test System: AMES SALMONELLA TYPHIMURIUM, Strain/Indicator: TA100, Metabolic Activation: HAMSTER, LIVER, S-9, AROCLOR 1254 (30%), Method: PREINCUBATION): inactive; negative | mutagenic call (Test System: AMES SALMONELLA TYPHIMURIUM, Strain/Indicator: TA100, Metabolic Activation: HAMSTER, LIVER, S-9, SODIUM PHENOBARBITAL AND 5,6-BENZOFLAVONE, Method: PREINCUBATION): inactive; negative | mutagenic call [2]: inactive; negative | mutagenic call (Test System: AMES SALMONELLA TYPHIMURIUM, Strain/Indicator: TA100, Metabolic Activation: RAT, LIVER, S-9, AROCLOR 1254 (10 OR 30%), Method: PREINCUBATION): inactive; negative | mutagenic call (Test System: AMES SALMONELLA TYPHIMURIUM, Strain/Indicator: TA102, Metabolic Activation: HAMSTER, LIVER, S-9, SODIUM PHENOBARBITAL AND 5,6-BENZOFLAVONE, Method: PREINCUBATION): inactive; negative | mutagenic call (Test System: AMES SALMONELLA TYPHIMURIUM, Strain/Indicator: TA102, Metabolic Activation: NONE, Method: PREINCUBATION): inactive; negative | mutagenic call (Test System: AMES SALMONELLA TYPHIMURIUM, Strain/Indicator: TA104, Metabolic Activation: HAMSTER, LIVER, S-9, SODIUM PHENOBARBITAL AND 5,6-BENZOFLAVONE, Method: PREINCUBATION): inactive; negative | mutagenic call (Test System: AMES SALMONELLA TYPHIMURIUM, Strain/Indicator: TA104, Metabolic Activation: NONE, Method: PREINCUBATION): inactive; negative | mutagenic call (Test System: AMES SALMONELLA TYPHIMURIUM, Strain/Indicator: TA1535, Metabolic Activation: HAMSTER, LIVER, S-9, AROCLOR 1254 (10%), Method: PREINCUBATION): inactive; negative | mutagenic call (Test System: AMES SALMONELLA TYPHIMURIUM, Strain/Indicator: TA1535, Metabolic Activation: HAMSTER, LIVER, S-9, AROCLOR 1254 (30%), Method: PREINCUBATION): inactive; negative | mutagenic call (Test System: AMES SALMONELLA TYPHIMURIUM, Strain/Indicator: TA1535, Metabolic Activation: HAMSTER, LIVER, S-9, SODIUM PHENOBARBITAL AND 5,6-BENZOFLAVONE, Method: PREINCUBATION): inactive; negative | mutagenic call [3]: inactive; negative | mutagenic call (Test System: AMES SALMONELLA TYPHIMURIUM, Strain/Indicator: TA1535, Metabolic Activation: RAT, LIVER, S-9, AROCLOR 1254 (10 OR 30%), Method: PREINCUBATION): inactive; negative | mutagenic call (Test System: AMES SALMONELLA TYPHIMURIUM, Strain/Indicator: TA1537, Metabolic Activation: HAMSTER, LIVER, S-9, SODIUM PHENOBARBITAL AND 5,6-BENZOFLAVONE, Method: PREINCUBATION): inactive; negative | mutagenic call (Test System: AMES SALMONELLA TYPHIMURIUM, Strain/Indicator: TA1537, Metabolic Activation: NONE, Method: PREINCUBATION): inactive; negative | mutagenic call (Test System: E. COLI, Strain/Indicator: WP2UVRA/PKM101, Metabolic Activation: HAMSTER, LIVER, S-9, SODIUM PHENOBARBITAL AND 5,6-BENZOFLAVONE, Method: PREINCUBATION): inactive; negative | mutagenic call (Test System: E. COLI, Strain/Indicator: WP2UVRA/PKM101, Metabolic Activation: NONE, Method: PREINCUBATION): inactive; negative | mutagenic call (Test System: E. COLI, Strain/Indicator: WP2UVRA, Metabolic Activation: HAMSTER, LIVER, S-9, SODIUM PHENOBARBITAL AND 5,6-BENZOFLAVONE, Method: PREINCUBATION): inactive; negative | mutagenic call (Test System: E. COLI, Strain/Indicator: WP2UVRA, Metabolic Activation: NONE, Method: PREINCUBATION): inactive; negative | mutagenic call (Test System: UDS RODENT HEPATOCYTES, Strain/Indicator: THY INCORP (NON-S-PHASE), Metabolic Activation: NONE, Method: AUTORADIOGRAPHY): inactive; negative

COc1cc2c(CCNC(C)=O)c[nH]c2cc1O
mutagenic call (Test System: AMES SALMONELLA TYPHIMURIUM, Strain/Indicator: TA97, Metabolic Activation: NONE, Method: STANDARD PLATE): inactive; negative | mutagenic call (Test System: AMES SALMONELLA TYPHIMURIUM, Strain/Indicator: TA97, Metabolic Activation: RAT, LIVER, S-9, AROCLOR 1254, Method: STANDARD PLATE): inactive; negative | mutagenic call [1]: inactive; negative | mutagenic call [4]: inactive; negative | mutagenic call [5]: inactive; negative | mutagenic call [6]: inactive; negative

OCC(Cl)(Cl)Cl
mutagenic call (Test System: AMES SALMONELLA TYPHIMURIUM, Strain/Indicator: TA100, Metabolic Activation: NONE, Method: BAG VAPORIZATION): inactive; negative | mutagenic call (Test System: AMES SALMONELLA TYPHIMURIUM, Strain/Indicator: TA100, Metabolic Activation: RAT, LIVER, S-9, AROCLOR 1254, Method: BAG VAPORIZATION): inactive; negative

Clc1ccc(CCC2CO2)cc1 (configuration not stated)
mutagenic call [2]: inactive; negative | mutagenic call [5]: active; positive | mutagenic call [3]: inactive; negative | mutagenic call (Test System: AMES SALMONELLA TYPHIMURIUM, Strain/Indicator: TA1535, Metabolic Activation: NONE, Method: STANDARD PLATE): active; positive

CCCOc1cc(N=Nc2ccc(N(CC)CC)cc2)ccc1N=Nc1c(S(=O)(=O)O)cc2ccc(N)cc2c1O
mutagenic call [4]: active; positive | mutagenic call [5]: inactive; negative | mutagenic call [6]: inactive; negative | mutagenic call (Test System: AMES SALMONELLA TYPHIMURIUM, Strain/Indicator: TA1538, Metabolic Activation: NONE, Method: STANDARD PLATE): inactive; negative | mutagenic call (Test System: AMES SALMONELLA TYPHIMURIUM, Strain/Indicator: TA1538, Metabolic Activation: RAT, LIVER, S-9, AROCLOR 1254, Method: STANDARD PLATE): active; positive
